Measured values from paper PMC5306062, “Pharmacology and toxicology of the novel investigational agent Cantrixil (TRX-E-002-1)” (Cancer Chemotherapy and Pharmacology, 2016).

Key:
[1] = GLP telemetry cardiovascular study, intraperitoneal injection; format: in vivo, beagle dogs
Experimental: However, at concentrations of 0.1-10 μM, the drug increased surface expression of the hERG single mutant (hERG-SM), identifying it as a potential blocker of hERG channel activity. […] Potential cardiovascular responses to intraperitoneal injection of TRX-E-002-1 were investigated in a GLP-compliant telemetry study in beagle dogs. Four male dogs received vehicle (20% SBECD) or TRX-E-002-1 (1, 10 or 30 mg/kg) on four separate occasions in a Latin Square design. Blood pressure, heart rate, ECG parameters and body temperatures were continuously recorded from 30 min before dosing until at least 24 h after each dose.

[2] = system: mouse lymphoma L5178Y cells; test: In vitro mammalian cell mutation assay, thymidine kinase locus; conditions: 3 h with and without S9, 24 h without S9
Experimental: Genotoxicity testing of TRX-E-002-1 was performed in an ICH-compliant test battery (see ICH Guideline S2A), comprising an in vitro bacterial reverse mutation test, an in vitro mammalian cell mutation assay and an in vivo rodent bone marrow micronucleus assay. The assays were performed in compliance with GLP regulations.
The in vitro mammalian cell mutation assay utilised the forward mutation system at the thymidine kinase locus of the mouse lymphoma L5178Y cells using a microtitre cloning technique. TRX-E-002-1 was tested in three experimental conditions: 3-h incubation at 37 °C with and without metabolic activation system (Aroclor-induced rat liver S9 mix), and a 24-h incubation without metabolic activation (i.e. continuous treatment).

[3] = system: chemo-resistant CD44+/MyD88+ OCSC clones; test: Cell death in ovarian cancer stem cell clones; format: cell-based, human; conditions: grown separately or in co-cultures
Source text: (§1) Tumour recurrence post-chemotherapy is caused by the regrowth of the surviving innately drug-resistant cancer stem cells that remain in tumour niches during and post-chemotherapy. The expansion of this chemo-resistant cancer cell population, coupled with upregulation of pro-survival pathways due to drug pressure, is thought to be responsible for the development of chemo-resistant recurrent disease. Further, the inherent heterogeneity of ovarian tumours consists of epithelial cells with varying potential for stemness, and a population of cancer cells with varying mesenchymal status and invasiveness potential. Therefore, to improve survival, a practical approach is the use of novel therapies that can induce cell death in these various subtypes of ovarian cancer cells. TRX-E-002-1 was assessed against ovarian cancer stem cell line OCSC2, characterised by their expression of stem cell markers including CD44 and […] [22]. A major characteristic of these cells is that they are drug resistant, able to form self-renewing spheroids in non-adherent culture, and recreate disseminated drug-resistant ovarian tumours that have a high degree of heterogeneity similar to the clinical profile observed in patients when inoculated into the peritoneal cavity of an immune-compromised mouse.

[4] = system: wild-type human ether-à-go-go-related gene (hERG); test: hERG trafficking, surface expression of wild-type hERG; format: cell-based
[5] = system: human Panc-1 pancreatic tumour cells implanted orthotopically; test: Orthotopic model of pancreatic cancer; format: in vivo, female NOD-SCID mice; conditions: 100 mg/kg i.p. once daily in 20% SBECD, 18 consecutive days; p < 0.001
Experimental: Fig. 3 Efficacy of TRX-E-002-1 in an orthotopic model of pancreatic cancer. Female NOD-SCID mice were inoculated directly into the pancreas with PANC-1 human pancreatic epithelioid adenocarcinoma cells transfected with luciferase gene. Tumours were allowed to establish prior to treatment initiation. Animals were dosed with TRX-E-002-1 100 mg/kg i.p. for 18 consecutive days over which time tumour growth was monitored using bioluminescent imaging. Following euthanasia at the predetermined end-point, tumours were excised and weighed. Final tumour (plus pancreas) weights excised at the terminal time point. *p < 0.001

[6] = system: co-cultures which mimic tumour heterogeneity; test: Co-culture studies with cisplatin; format: cell-based, human
Source text: as §1

[7] = system: micronucleated polychromatic erythrocytes (PCEs) in bone marrow; test: Bone marrow micronucleus test; format: in vivo, ARC(S) Swiss mice; conditions: for frequency of micronucleated PCEs: female mice
Experimental: The assays were performed in compliance with GLP regulations.
The bone marrow micronucleus test was the in vivo part of the ICH genotoxicity testing battery and was conducted in ARC(S) Swiss mice. Eight groups of mice (10/sex/group) were given an intraperitoneal injection of vehicle (20% w/v SBECD) or Cantrixil at 50, 200 or 400 mg/kg and were killed 24 or 48 h later. Dimethyl-1,2 benzanthracene was used as the positive control. After preparation of the bone marrow cells, the number of micronucleated polychromatic erythrocytes (PCEs) was determined in 4000 PCEs per animal, and the proportion of PCEs in the total erythrocyte population in bone marrow was calculated from the examination of at least 500 erythrocytes as an index of bone marrow toxicity. […] The proportion of PCEs in the total erythrocyte population was decreased in both sexes at the 200 and 400 mg/kg doses at both kill times. TRX-E-002-1 is therefore considered clastogenic in this system at the described concentrations in vivo [the equivalent 200/400 mg/kg dose in a […] is 16.2 mg/kg (600 mg/m^2)/32.4 mg/kg (1200 mg/m^2) in a 60-kg human].

[8] = system: chemo-sensitive CD44−/MyD88− ovarian cancer cell lines; test: Cell death in chemo-sensitive ovarian cancer cell lines; format: cell-based, human; conditions: grown separately or in co-cultures
Source text: as §1

[9] = system: CYP3A4; test: CYP induction in human hepatocytes; format: in vitro ADME; conditions: one of three donors
Source text: (§2) Potential induction of human drug-metabolizing cytochrome P450 enzymes by TRX-E-002-1 was also investigated in human hepatocytes in vitro (VPT3079/2015). No evidence of CYP1A2 induction was observed.

[10] = system: CYP1A2; test: CYP induction in human hepatocytes; format: in vitro ADME
Source text: as §2

[11] = system: CYP2B6; test: CYP induction in human hepatocytes; format: in vitro ADME; conditions: one of three donors
Source text: as §2

[12] = biological target: T1, hERG current (Homo sapiens, UniProt Q12809); test: Patch-clamp electrophysiological assay in hERG-transfected mammalian cells; format: cell-based; conditions: read-out: IC50 for inhibition of hERG current
T1 construct: expressed in transfected cells
T1 sequence (Q12809 whole entry): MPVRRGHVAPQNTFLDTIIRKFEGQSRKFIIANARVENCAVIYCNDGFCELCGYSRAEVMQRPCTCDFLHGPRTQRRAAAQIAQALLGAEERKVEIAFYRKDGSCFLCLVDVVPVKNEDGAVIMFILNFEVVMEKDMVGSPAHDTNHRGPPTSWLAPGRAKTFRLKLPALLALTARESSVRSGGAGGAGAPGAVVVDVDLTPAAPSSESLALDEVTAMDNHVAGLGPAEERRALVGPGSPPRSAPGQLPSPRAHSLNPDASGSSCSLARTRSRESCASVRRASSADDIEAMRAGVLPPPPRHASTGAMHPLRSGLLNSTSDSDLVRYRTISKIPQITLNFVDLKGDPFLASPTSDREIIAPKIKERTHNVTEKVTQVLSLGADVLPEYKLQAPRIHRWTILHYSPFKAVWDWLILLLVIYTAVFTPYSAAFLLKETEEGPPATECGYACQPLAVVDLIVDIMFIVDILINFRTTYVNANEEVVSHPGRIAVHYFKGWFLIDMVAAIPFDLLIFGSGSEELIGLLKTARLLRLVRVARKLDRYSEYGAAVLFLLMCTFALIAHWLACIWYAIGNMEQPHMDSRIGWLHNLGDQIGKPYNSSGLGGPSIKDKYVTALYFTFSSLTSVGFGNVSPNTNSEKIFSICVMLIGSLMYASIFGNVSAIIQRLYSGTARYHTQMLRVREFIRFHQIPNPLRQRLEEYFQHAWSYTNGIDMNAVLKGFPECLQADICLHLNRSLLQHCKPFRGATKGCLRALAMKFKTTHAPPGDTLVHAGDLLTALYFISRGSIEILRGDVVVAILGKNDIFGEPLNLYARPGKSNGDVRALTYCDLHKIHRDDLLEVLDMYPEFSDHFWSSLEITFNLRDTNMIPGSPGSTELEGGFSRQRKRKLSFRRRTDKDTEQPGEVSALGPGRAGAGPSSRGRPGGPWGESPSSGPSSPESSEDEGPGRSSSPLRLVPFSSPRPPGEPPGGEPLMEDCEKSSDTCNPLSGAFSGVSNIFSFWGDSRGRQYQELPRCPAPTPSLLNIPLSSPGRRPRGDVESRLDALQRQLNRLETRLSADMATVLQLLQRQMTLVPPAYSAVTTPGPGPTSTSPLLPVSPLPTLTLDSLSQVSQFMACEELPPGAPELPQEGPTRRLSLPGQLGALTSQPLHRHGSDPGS

In the case of `COc1cc([C@@H]2COc3c(ccc(O)c3C)[C@@H]2c2ccc(O)cc2)cc(OC)c1O` [TRX-E-002-1, (+) cis-4-(para-hydroxyphenyl)-7,4′-dihydroxy-3′,5′-dimethoxy-8-methylisoflavan], the “effect on QTc interval” value ([1]; 1, 10 or 30 mg/kg i.p., ECG telemetry) is reported as “no effect”, the “blood pressure and heart rate” value ([1]; 10 and/or 30 mg/kg i.p., not considered adverse) is reported as “slight, transient increases” and the “mutant frequencies compared with control values” [2] is reported as “did not show statistically significant differences”. The “induction of cell death” value [3] was “able to induce cell death”, the “surface expression of wild-type hERG” value [4] was “does not affect” and the “terminal pancreatic tumour burden” value [5] was “significantly reduced”. For the same molecule, the “effect on effectiveness of cisplatin” value [6] was “enhanced the effectiveness of cisplatin”, the “clastogenicity, overall conclusion” value ([7]; at the described concentrations in vivo) was “clastogenic” and the “proportion of PCEs in the total erythrocyte population” value ([7]; both sexes, 200 and 400 mg/kg, both kill times) was “decreased”. The “frequency of micronucleated PCEs” value ([7]; 200 mg/kg i.p., 24 and 48 h) was “significantly increased”, the “frequency of micronucleated PCEs” value ([7]; 400 mg/kg i.p., 24 h) was “significantly increased” and the “slight increases in frequency of micronucleated PCEs” value ([7]; male mice, 200 and 400 mg/kg i.p.) was “not statistically significant”. For the same molecule, the “induction of cell death” value [8] was “able to induce cell death”, the “induction of CYP3A4” value [9] was “Equivocal evidence” and the CYP1A2 induction [10] was “No evidence”. For the same molecule, the “induction of CYP2B6” value [11] was “Equivocal evidence” and the IC50 [12] was 17 µM.
